Assay results taken from patent US20240300945A1, “CLY SERIES COMPOUND, PREPARATION METHOD THEREFOR AND USE THEREOF IN PREPARATION OF DRUGS” (NANJING WELLBEST PHARMACEUTICAL CO., LTD, priority 2021, published 2024).
Marks after values point to notes of the source that are not given here.

What was measured:
rabbit ear acne model [1] = experiment: Rabbit ear acne model: macroscopic observation and histological grading; assay type: in vivo, New Zealand rabbits; settings: for number of rabbits with acne histological grading 2+: Grade 2; for number of rabbits with acne histological grading 2+ / number of rabbits with acne histological grading — / number of rabbits with acne histological grading 1+ / number of rabbits with acne histological grading 3+: right ear, 10 per group; for number of rabbits with acne histological grading —: Level 0, without acne; for number of rabbits with acne histological grading 1+: Level 1; for number of rabbits with acne histological grading 3+: Level 3
From the text: (1) Preparation method of treatment cream: The excipient matrix components included methyl silicone oil (15%), stearic acid (6%), white vaseline (5%), liquid paraffin (5%), octadecanol (5%), glycerin (20%), alkyl aryl polyglycol ether (1%), fatty alcohol polyoxyethylene ether (1%), […] (1%), ethyl paraben (0.1%), distilled water (about 31-55%), and mixed with appropriate amount of CLY series compounds to form a mixed emulsion. The emulsion matrix used in this embodiment refers to the matrix component after the active ingredient was removed from the emulsion.
(2) Positive therapeutic drug: 0.1% adapalene gel (Trade name: Differin, produced by Laboratoires Galderma, France).
(§1) New Zealand rabbits were, according to weights, randomly divided into the model control group (applied cream matrix), positive treatment group (applied Differin on the skin), CLY-1 external treatment group (0.25% CLY-1 cream on the skin), CLY-2 external treatment group (0.25% CLY-2 cream on the skin), CLY-3 external treatment group (0.25% CLY-3 cream on the skin), CLY-4 external treatment group (0.25% CLY-4 cream on the skin) CLY-8 external treatment group (0.25% CLY-8 cream on the skin), CLY-9 external treatment group (0.25% CLY-9 cream on the skin), CLY-11 external treatment group (0.25% CLY-11 cream on the skin), CLY-19 external treatment group (0.25% CLY-19 cream on the skin), CLY-36 external treatment group (0.25% CLY-36 cream on the skin); CLY-1 intravenous injection group (1 mg/kg·d), CLY-2 intravenous injection group (1 mg/kg·d), CLY-3 intravenous injection group (1 mg/kg·d), CLY-4 intravenous injection group (1 mg/kg·d), CLY-8 intravenous injection group (1 mg/kg·d), CLY-9 intravenous injection group (1 mg/kg·d), CLY-11 intravenous injection group (1 mg/kg·d), CLY-19 intravenous injection group (1 mg/kg·d), and CLY-36 intravenous injection group (1 mg/kg·d), with 10 in each group. Took the inner side of the rabbit's right ear for depilation treatment as the observation area, and the inner side of the left ear of all rabbits as their own negative control, and applied 95% alcohol. The inner side of the right ear of the model group and the treatment group were both coated with 2% coal tar (Alfa Aesar China, which used 95% alcohol to prepare 2% coal tar solution), and evenly applied the sterile cotton swab to the opening of the ear duct on the inner side of the rabbit's ear within the range of about 2 cm×2 cm, once a day, 0.5 mL each time, and wiped the previous application site with warm water for 14 consecutive days to establish the acne micro-pigmentation model. Visually observed the changes of local skin, including ear thickness, hardness, roughness, and whether there was a black angle plug at the hair follicle mouth. 18 hours after the last application, the sample was sacrificed and skin was taken. The skin tissue was taken from the application site by using a 5 mm punch, fixed with 10% formaldehyde, embedded in paraffin, and stained with HE. The histopathological observation and analysis were carried out.
The histological grading criteria of the acne model: 3 grades according to histological grade. […] The tight keratin embolism in the hair follicles causes severe expansion of the hair follicles, obvious hyperplasia of the sebaceous duct epithelium, skin bulges and scars, and some sebaceous glands degenerate “3±”.
(§2) SPSS16 software was used for statistical analysis. The paired t-test was used for the left and right self-contrast, and the t-test was used for the comparison between the groups, P<0.05 was statistically significant.

rabbit ear acne model [2] = experiment: Rabbit ear acne model: epidermal thickness, hair follicle area, sebaceous gland diameter; assay type: in vivo, New Zealand rabbits; settings: rabbit right ear
From the text: as §1
The histopathological changes were observed under the microscope, and the thickness of five different epidermises on a slice was measured with the Biomias99 image analysis system, and the average value was calculated; Detected the area of the two hair follicles and the diameter of the four sebaceous glands with the same position and the most complete structure in the four sections, calculated their average values, and then subtracted the data of the left and right external auditory canal of the rabbits in each group to obtain the difference in the thickness of the left and right ear epidermis, the difference in the area of the hair follicles and the difference in the diameter of the sebaceous glands.
as §2

[3] = Pharmacokinetic properties of rats (bioavailability); assay type: in vivo; settings: rat, po; male SD rats; intravenous 1 mg/kg, intragastric 5 mg/kg; plasma LC/MS/MS
Description: Male SD rats were randomly assigned to each group, 12 rats in each compound group, and then randomly divided into two groups. Six rats were administered intravenously (1 mg/kg), and blood was collected and plasma was separated respectively at 0.0833, 0.25, 0.5, 1, 2, 4, 6, 8, and 24 hours after administration. The other six rats were administered intragastrically (5 mg/kg), and blood was collected and plasma was separated respectively at 0.25, 0.5, 1, 2, 4, 6, 8, and 24 hours after administration. The concentration of each compound in plasma was determined by LC/MS/MS method, and the relevant pharmacokinetic parameters were calculated by using the software Phoenix WinNonlin 6.2.1, the bioavailability in rats was calculated, and the pharmacokinetic properties of each compound were evaluated.

[4] = external use (0.25% CLY cream; positive: Differin)
[5] = intravenous injection 1 mg/kg·d

With `O=C(c1ccc(-n2nnc3cccnc32)cc1)N(c1ncccc1Cl)[C@@H]1CCCN1` [CLY-9] the “number of rabbits with acne histological grading 2+” value (rabbit ear acne model [1]; [4]) was 1, the “number of rabbits with acne histological grading 2+” value (rabbit ear acne model [1]; [5]) was 0 and the “number of rabbits with acne histological grading —” value (rabbit ear acne model [1]; [4]) was 5. The “number of rabbits with acne histological grading —” value (rabbit ear acne model [1]; [5]) was 7, the “number of rabbits with acne histological grading 1+” value (rabbit ear acne model [1]; [4]) was 4 and the “number of rabbits with acne histological grading 1+” value (rabbit ear acne model [1]; [5]) was 3. For the same compound, the “number of rabbits with acne histological grading 3+” value (rabbit ear acne model [1]; [4]) was 0, the “number of rabbits with acne histological grading 3+” value (rabbit ear acne model [1]; [5]) was 0 and the epidermal thickness (rabbit ear acne model [2]; [4]) was 0.2389 ± 0.0189 mm. For the same compound, the hair follicle area (rabbit ear acne model [2]; [4]) was 0.2834 ± 0.0981* mm^2, the sebaceous gland diameter (rabbit ear acne model [2]; [4]) was 0.0715 ± 0.0412 mm and the epidermal thickness (rabbit ear acne model [2]; [5]) was 0.2126 ± 0.0167 mm. The hair follicle area (rabbit ear acne model [2]; [5]) was 0.2327 ± 0.0865* mm^2 and the sebaceous gland diameter (rabbit ear acne model [2]; [5]) was 0.0614 ± 0.0396 mm.

Compound `COC1CCC[C@@H](N(C(=O)c2cccc(-c3nnn[nH]3)c2)c2ncccc2Cl)C1` (some centres unmarked) [CLY-17] has a bioavailability [3] of 52.5%.

Work on `O=C(c1ccc(-c2cccc(-c3nnn[nH]3)c2)cc1)N(c1ncccc1Cl)[C@@H]1CCNC1` [CLY-18] yielded a bioavailability [3] of 46.9%.

With `O=C(c1ccccc1-c1nnn[nH]1)N(c1ncccc1Cl)[C@@H]1CCCNC1` [CLY-21] the bioavailability [3] was 49.6%.

Work on `O=C(c1ccc(-c2ccc(Cl)cc2)cc1)N(c1ncccc1Cl)[C@@H]1CCCNC1` [CLY-26] yielded a bioavailability [3] of 48.5%.

Work on `Nc1ccccc1-c1ccc(C(=O)N(c2ncccc2Cl)[C@@H]2CCNC2)cc1` [CLY-28] yielded a bioavailability [3] of 42.6%.

Compound `Cc1ccccc1-c1ccc(C(=O)N(c2ncccc2Cl)[C@@H]2CCNC2)cc1` [CLY-30] has a bioavailability [3] of 46.2%.

`CN1CCC[C@@H](N(C(=O)c2ccc(-c3ccccc3)cc2)c2ncccc2Cl)C1` [CLY-32] showed a bioavailability [3] of 58.6%.

In the case of `CCN1CCC[C@@H](N(C(=O)c2ccc(-c3ccc(Cl)cc3)cc2)c2ncccc2Cl)C1` [CLY-35], the bioavailability [3] is reported as 62.2%.

In the case of `O=C(c1ccccc1Cl)N(c1ncccc1Cl)[C@@H]1CCCNC1` [CLY-37], the bioavailability [3] is reported as 56.5%.

`CC(C)C(=O)OC(C)n1nnc(-c2c(-c3ccc(C(=O)N(c4ncccc4Cl)C4CCNC4)cc3)cnn2C)n1` [CLY-44, 1-(5-(4-(4-((3-chloropyridin-2-yl) (((R)-pyrrolidin-3-yl)carbamoyl)phenyl)-1-methyl-1H-pyrazol-5-yl)-2H-tetrazol-2-yl)ethyl isobutyrate] gave a bioavailability [3] of 50.6%.

In the case of `COc1ccc(-c2ccc3cc(C(=O)O)ccc3c2)cc1C12CC3CC(CC(C3)C1)C2` [Positive treatment group, adapalene, reference compound], the “number of rabbits with acne histological grading 2+” value (rabbit ear acne model [1]; [4]) is reported as 3, the “number of rabbits with acne histological grading —” value (rabbit ear acne model [1]; [4]) is reported as 5 and the “number of rabbits with acne histological grading 1+” value (rabbit ear acne model [1]; [4]) is reported as 2. The “number of rabbits with acne histological grading 3+” value (rabbit ear acne model [1]; [4]) was 0, the “macroscopic observation of right ear” value (rabbit ear acne model [1]; after 14 days of coal tar, external treatment) was “slightly red, with a little desquamation and a small amount of acne” and the epidermal thickness (rabbit ear acne model [2]; [4]) was 0.2389 ± 0.0176 mm. The hair follicle area (rabbit ear acne model [2]; [4]) was 0.2789 ± 0.0926* mm^2 and the sebaceous gland diameter (rabbit ear acne model [2]; [4]) was 0.0723 ± 0.0387 mm.
